Experimental data: patent US20030204875A1, “Novel agrobacterium-mediated plant transformation method” (priority 1999, published 2003)

The compounds below were run on Agrobacterium (strain ABI) (assay: not given). Settings: control, final concentration 50 mg/L; twenty-four hours.
Format: cell-based
Parameters: key: “No Growth” indicates there was not an increase in cell density indicating bacteriocidal or bacteriostatic property of the chemical; “Slow Growth” indicates that a slight increase in cell density was noticed and a higher level may be lethal; “Growth” indicates no effect on bacterial growth at the concentration used relative to growth in control medium
Protocol: Each of the chemicals listed in Table 26 was resuspended in MS-BMS media and added (final concentration 50 μM) to a 50 ml overnight culture of Agrobacterium (strain ABI). Twenty-four hours after inoculation the effect of the chemicals on the growth of Agrobacterium was recorded. A known bacteriocidal compound, Carbenicillin at a final concentration of 50 mg/L and AgNO3 (20 μM) were used as controls.
CC1(C)S[C@@H]2[C@H](NC(=O)C(C(=O)O)c3ccccc3)C(=O)N2[C@H]1C(=O)O (some centres unmarked) [Carbenicillin, reference compound] was tested, and the “Effect (on growth of Agrobacterium)” value was “No Growth”.

Same assay, conditions: final concentration 50 μM in MS-BMS media; twenty-four hours
[Cl][Al]([Cl])[Cl] [Aluminum Chloride] was tested, and the “Effect (on growth of Agrobacterium)” value was “Growth”.
[Cl][Cr][Cl] [Chromium (II) Chloride] was tested, and the “Effect (on growth of Agrobacterium)” value was “Growth”.
With [Cl-].[Cl-].[Zn+2] [Zinc Chloride] the “Effect (on growth of Agrobacterium)” value was “Growth”.
[Na+].[Na+].[O]=[Mo](=[O])([O-])[O-] [Sodium Molybdate] was tested, and the “Effect (on growth of Agrobacterium)” value was “Growth”.
With Manganese Chloride the “Effect (on growth of Agrobacterium)” value was “Slow Growth”.
For Lead Nitrate, the “Effect (on growth of Agrobacterium)” value was “Growth”.
With [Na+].[Na+].[O]=[W](=[O])([O-])[O-] [Sodium Tungstate] the “Effect (on growth of Agrobacterium)” value was “Growth”.
[Cl][Cd][Cl] [Cadmium Chloride] was tested, and the “Effect (on growth of Agrobacterium)” value was “Slow Growth”.
[Cl][Ni][Cl] [Nickel Chloride] was tested, and the “Effect (on growth of Agrobacterium)” value was “Growth”.

These compounds were tested on immature embryos of genotype (H99×Pa 91)A188 (assay: Transformation efficiency of corn with different growth inhibiting agents during co-culture). Settings: 50 mg/L in co-culture medium, three days; OD 4.0.
Format: cell-based
Protocol: b) Biological assay (leaf bleach assay). Leaf samples (a leaf punch) from approximately 2-week-old seedlings were placed in wells of 24-well cell culture clusters (Costar Corporation, Cambridge, Mass.). Each well was filled with 0.5 ml aqueous solution composed of 300 mg/L paromomycin (Sigma) and 100 mg/L Benlate (a fungicide made by Du Pont), 100 mg/IL Benlate alone was used as a control. Three leaf samples from the same leaf of each plant were placed in two wells containing paromomycin plus Benlate and one well containing Benlate alone, respectively. Leaf samples from non-transformed plants were used as negative controls. The samples were vacuum-infiltrated in a dessicator using an in-house vacuum system for 5 min and then the clusters were sealed tightly with parafilm before being placed under light (140 μMol m-2s-1). The results were determined after 60 hours.
Immature embryos of genotype (H99×Pa 91)A188 were isolated as described. […] The Agrobacterium strain was pre-induced as described. The inoculation was performed using a concentration of A660 OD 4.0 for 15 minutes as described. Post inoculation, Agrobacterium suspension was removed and embryos were placed on different semi-solid co-culture media supplemented with various bacteriocidal compounds. All the tissues were incubated for three days in the dark. The transformation protocol followed was as described previously (corn IE transformation) except that the 1st selection with 50 mg/L Paromomycin was replaced with 25 mg/L Paromomycin for 2 weeks and 50 mg/L Paromomycin for 2 additional weeks. Transformation efficiency was calculated based on the number of embryos producing nptII positive plants as determined by a leaf bleach assay as described earlier. Three weeks after the transformation, the quality and growth characteristics of IE-derived callus co-cultured in the presence of different growth inhibiting agents.
With CC1(C)S[C@@H]2[C@H](NC(=O)C(C(=O)O)c3ccccc3)C(=O)N2[C@H]1C(=O)O (some centres unmarked) [Carbenicillin, reference compound] the “% Transformation” value was 14.3%.
